pIC50: −log10 of the molar value. Values after ≈ are worked out from the molar mass of the structure shown.
Assays:
HCT-116 [1] = experiment: Antitumor activity against MTAP-deleted human HCT-116 cells xenografted in female athymic nude mouse model assessed as tumor growth inhibition at 3 mg/kg, po administered once daily for 14 days relative to control; format: functional; details: HCT-116, 336 h, time 14 day, read-out: TGI
[2] = Solubility of compound in PBS buffer at pH 7.4
HCT-116 [3] = experiment: Antitumor activity against MTAP-deleted human HCT-116 cells xenografted in female athymic nude mouse model assessed as tumor growth inhibition at 30 mg/kg, po administered once daily for 14 days relative to control; format: functional; details: HCT-116, 336 h, time 14 day, read-out: TGI
[4] = Solubility of compound in Hcl buffer at pH 2.0
BXPC-3 = experiment: Antiproliferative activity against human BXPC-3 cells assessed as effect on cell viability; format: functional, cell-based
[5] = target: Protein arginine N-methyltransferase 5 (Homo sapiens) (UniProt O14744); experiment: In vivo inhibition of PRMT5 in female athymic nude mouse xenografted with MTAP-deleted human U-87 MG cells assessed as decrease in SDMA level in tumor at 10 mg/kg, po administered once daily for 14 days and measured 2 to 8 hrs post last dose by ELISA relative to control; format: functional, organism-based; details: time 338-344 hrs
Chain of Protein arginine N-methyltransferase 5 (Homo sapiens) (O14744 whole entry): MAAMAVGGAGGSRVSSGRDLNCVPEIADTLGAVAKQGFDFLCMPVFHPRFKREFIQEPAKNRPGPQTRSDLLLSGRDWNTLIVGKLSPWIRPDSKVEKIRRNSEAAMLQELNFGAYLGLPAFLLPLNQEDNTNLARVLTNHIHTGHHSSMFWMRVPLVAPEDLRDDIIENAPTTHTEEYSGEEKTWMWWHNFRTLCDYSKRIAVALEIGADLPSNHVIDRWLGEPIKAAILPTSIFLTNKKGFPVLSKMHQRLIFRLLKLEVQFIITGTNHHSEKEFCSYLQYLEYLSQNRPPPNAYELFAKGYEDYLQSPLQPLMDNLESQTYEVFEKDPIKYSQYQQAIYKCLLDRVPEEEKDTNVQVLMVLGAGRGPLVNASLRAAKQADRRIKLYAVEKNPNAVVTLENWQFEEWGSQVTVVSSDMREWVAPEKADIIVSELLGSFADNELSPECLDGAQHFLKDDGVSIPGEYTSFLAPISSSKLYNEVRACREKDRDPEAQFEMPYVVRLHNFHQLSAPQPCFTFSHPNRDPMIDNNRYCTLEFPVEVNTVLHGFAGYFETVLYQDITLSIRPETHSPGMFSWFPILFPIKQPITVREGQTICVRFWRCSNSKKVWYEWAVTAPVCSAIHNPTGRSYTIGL

[6] = Metabolic stability in rat hepatocytes assessed as intrinsic clearance measured per 10^6 cells; format: ADME, cell-based, Hepatocyte; details: read-out: CLH
human MDR1 (P-gp) = experiment: Efflux ratio of permeability across basolateral to apical side over apical to basolateral side in MDCK cells transfected with human MDR1 in absence of elacridar; details: dog
[7] = target: Protein arginine N-methyltransferase 5 (Homo sapiens) (UniProt O14744); experiment: In vivo inhibition of PRMT5 in athymic nude mouse xenografted with MTAP-deleted human HCT-116 cells assessed as decrease in SDMA level in tumor at 100 mg/kg, po administered once daily for 4 days and measured 4 hrs post last dose by ELISA relative to control; format: functional, organism-based; details: time 4.0 day
[8] = target: PRMT5/MEP50 complex (Homo sapiens) (UniProt O14744+Q9BQA1); experiment: Inhibition of human PRMT5/MEP50 at 10 uM relative to control; format: protein-complex assay
[9] = Metabolic stability in dog hepatocytes assessed as intrinsic clearance measured per 10^6 cells; format: ADME, cell-based, Canis lupus familiaris, Hepatocyte; details: read-out: CLH
[10] = Metabolic stability in rat liver microsomes assessed as intrinsic clearance; format: ADME, Microsome; details: time 40 min, read-out: CLH
[11] = Toxicity in athymic nude mouse xenografted with MTAP-deleted human BXPC-3 cells assessed as effect on body weight at 10 to 100 mg/kg, po administered once daily for 26 days; format: organism-based; details: in vivo, 624 h, dose 10-100 mg/kg, time 26 day
[12] = target: Protein arginine N-methyltransferase 5 (Homo sapiens) (UniProt O14744); experiment: In vivo inhibition of PRMT5 in athymic nude mouse xenografted with human HCT-116 cells harboring wildtype MTAP assessed as decrease in SDMA level in tumor at 3 mg/kg, po administered once daily for 4 days and measured 4 hrs post last dose by ELISA relative to control; format: functional, organism-based; details: time 4.0 day
[13] = Unbound CSF-to-plasma concentration ratio in female Sprague-Dawley rat at 75 mg/kg, po administered as single dose; format: ADME, organism-based
[14] = target: Protein arginine N-methyltransferase 5 (Homo sapiens) (UniProt O14744); experiment: In vivo inhibition of PRMT5 in female athymic nude mouse xenografted with MTAP-deleted human U-87 MG cells assessed as decrease in SDMA level in tumor at 100 mg/kg, po administered once daily for 14 days and measured 2 to 8 hrs post last dose by ELISA relative to control; format: functional, organism-based; details: time 338-344 hrs

Nc1nc2cnc(C(=O)N3CCOC[C@@H]3c3ccc(C(F)(F)F)cc3)cc2c2c1COC2
inhibition in vivo at 3 mg/kg (HCT-116 [1]): 54%
solubility [2]: 257 µM (≈ 114 µg/mL)
inhibition in vivo at 30 mg/kg (HCT-116 [3]): 74%
solubility [4]: 492 µM (≈ 219 µg/mL)
pIC50 (BXPC-3): 6.66
inhibition [5]: 68%
hepatocyte CLint [6]: 31 µL/min/1e6 cells
efflux ratio (human MDR1 (P-gp)): 3
inhibition [7]: 71%
inhibition [8]: 84%
hepatocyte CLint [9]: 5 µL/min/1e6 cells
microsomal CLint at 0.5 µM [10]: 123 µL/min/mg
Activity [11]: Non-toxic
inhibition [12]: 12%
Kp uu [13]: 0.2
inhibition [14]: 83%
